Experimental data from PubChem BioAssay (NCI).
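Values below derive from 48-hour exposures of cells grown in 96-well plates, with endpoints linearly interpolated between the two concentrations bracketing the appropriate inhibition level. GI50 is the concentration that inhibits growth by half. Definition used: TGI = concentration required for complete inhibition of growth.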

Experiments:
Assay in all cases: growth of human tumour cells (NCI), 48 h
[1] = system: OVCAR-8 ovarian
[2] = system: T-47D breast
[3] = system: SF-295 CNS
[4] = system: KM12 colon
[5] = system: HCT-116 colon
[6] = system: OVCAR-4 ovarian
[7] = system: OVCAR-3 ovarian
[8] = system: SK-MEL-28 melanoma
[9] = system: RPMI-8226 leukemia
[10] = system: MOLT-4 leukemia
[11] = system: SNB-19 CNS
[12] = system: COLO 205 colon
[13] = system: HS 578T breast
[14] = system: NCI/ADR-RES ovarian
[15] = system: U251 CNS
[16] = system: 786-0 renal
[17] = system: OVCAR-5 ovarian
[18] = system: UO-31 renal
[19] = system: CAKI-1 renal
[20] = system: NCI-H23 lung
[21] = system: ACHN renal
[22] = system: SF-268 CNS
[23] = system: BT-549 breast
[24] = system: NCI-H226 lung
[25] = system: A498 renal
[26] = system: SK-MEL-5 melanoma
[27] = system: SN12C renal
[28] = system: A549 NSCLC
[29] = system: MDA-MB-231 breast
[30] = system: SNB-75 CNS
[31] = system: SW-620 colon
[32] = system: IGROV1 ovarian
[33] = system: TK-10 renal
[34] = system: PC-3 prostate
[35] = system: RXF 393 renal
[36] = system: HCC-2998 colon
[37] = system: MCF7 breast
[38] = system: HOP-62 NSCLC
[39] = system: HCT-15 colon
[40] = system: SF-539 CNS
[41] = system: MDA-MB-435
[42] = system: LOX IMVI melanoma
[43] = system: MALME-3M melanoma
[44] = system: HOP-92 NSCLC
[45] = system: SK-OV-3 ovarian
[46] = system: K-562 leukemia
[47] = system: HL-60(TB) leukemia
[48] = system: SK-MEL-2 melanoma
[49] = system: UACC-62 melanoma
[50] = system: NCI-H460 lung
[51] = system: NCI-H522 lung
[52] = system: M14 melanoma
[53] = system: UACC-257 melanoma
[54] = system: DU-145 prostate
[55] = system: CCRF-CEM leukemia
[56] = system: HT29 colon

CCN(Cc1ccccc1F)c1ccc(CO)c(Cl)c1
GI50 [1]: 13.2 µM
TGI [1]: > 57 µM
GI50 [2]: < 0.0213 µM
TGI [2]: 0.177 µM
GI50 [3]: 0.7 µM
TGI [3]: 17.2 µM
GI50 [4]: 18.5 µM
TGI [4]: 47.7 µM
GI50 [5]: < 0.0273 µM
TGI [5]: 11.3 µM
GI50 [6]: 0.0793 µM
TGI [6]: 5.88 µM
GI50 [7]: 0.176 µM
TGI [7]: 1.5 µM
GI50 [8]: 13.5 µM
TGI [8]: 31.3 µM
GI50 [9]: 0.796 µM
TGI [9]: 22.8 µM
GI50 [10]: 22.5 µM
TGI [10]: 56.2 µM
GI50 [11]: 28.4 µM
TGI [11]: > 94.6 µM
GI50 [12]: 2.45 µM
TGI [12]: 7.86 µM
GI50 [13]: 26.5 µM
TGI [13]: > 66.4 µM
GI50 [14]: 15.9 µM
TGI [14]: 52.8 µM
GI50 [15]: 0.256 µM
TGI [15]: 24.2 µM
GI50 [16]: 15.9 µM
TGI [16]: 41 µM
GI50 [17]: 0.0428 µM
TGI [17]: 0.234 µM
GI50 [18]: 13.2 µM
TGI [18]: 46.4 µM
GI50 [19]: 3.81 µM
TGI [19]: 39.9 µM
GI50 [20]: 14.6 µM
TGI [20]: 57.1 µM
GI50 [21]: 19.2 µM
TGI [21]: > 53.4 µM
GI50 [22]: 26.6 µM
TGI [22]: > 60.7 µM
GI50 [23]: 15.8 µM
TGI [23]: 30.6 µM
GI50 [24]: 0.0137 µM
TGI [24]: 0.0511 µM
GI50 [25]: < 0.0179 µM
TGI [25]: 0.0594 µM
GI50 [26]: 2.66 µM
TGI [26]: 21.1 µM
GI50 [27]: 13.5 µM
TGI [27]: 38.6 µM
GI50 [28]: 1.03 µM
TGI [28]: 21.8 µM
GI50 [29]: 16.3 µM
TGI [29]: 41.7 µM
GI50 [30]: 11 µM
TGI [30]: 46.4 µM
GI50 [31]: 0.49 µM
TGI [31]: > 46.5 µM
GI50 [32]: < 0.0231 µM
GI50 [33]: < 0.0201 µM
TGI [33]: 0.0651 µM
GI50 [34]: 18.9 µM
TGI [34]: > 62.8 µM
GI50 [35]: 4.35 µM
TGI [35]: 24.8 µM
GI50 [36]: 8.41 µM
TGI [36]: 25 µM
GI50 [37]: 0.0892 µM
TGI [37]: 12.7 µM
GI50 [38]: 1.34 µM
TGI [38]: 17.8 µM
GI50 [39]: 11.5 µM
TGI [39]: 47.2 µM
GI50 [40]: 16.8 µM
TGI [40]: 34.5 µM
GI50 [41]: 17.2 µM
TGI [41]: 40.2 µM
GI50 [42]: 20.3 µM
TGI [42]: 44.2 µM
GI50 [43]: 17.7 µM
TGI [43]: 39.5 µM
GI50 [44]: 0.301 µM
TGI [44]: 8.72 µM
GI50 [45]: 4.28 µM
TGI [45]: 17.9 µM
GI50 [46]: 0.535 µM
TGI [46]: > 39 µM
GI50 [47]: 17.7 µM
TGI [47]: 47.3 µM
GI50 [48]: 1.81 µM
TGI [48]: 19.9 µM
GI50 [49]: 0.0409 µM
TGI [49]: 0.992 µM
GI50 [50]: 0.0604 µM
TGI [50]: 11 µM
GI50 [51]: 16.3 µM
TGI [51]: 39.1 µM
GI50 [52]: 19.9 µM
TGI [52]: 41.7 µM
GI50 [53]: < 0.0346 µM
TGI [53]: 0.134 µM
GI50 [54]: 18.4 µM
TGI [54]: > 60 µM
GI50 [55]: 24.2 µM
TGI [55]: > 75.4 µM
GI50 [56]: 3.38 µM
TGI [56]: 21.4 µM
